pIC50: −log10 of the molar value.
Columns and labels:
4T1 = experiment: Antiproliferative activity against mouse 4T1 cells assessed as inhibition of cell growth incubated for 48 hrs by MTT assay; type: functional, cell-based; settings: 4T1, 48 h
[1] = biological target: Protein-arginine deiminase type-2 (Homo sapiens, UniProt Q9Y2J8); experiment: Inhibition of PAD2 (unknown origin) using Nalpha-benzoyl-L-arginine ethyl ester as substrate preincubated for 60 mins followed by substrate addition and measured after 90 mins by colorimetric analysis
Chain of Protein-arginine deiminase type-2 (Q9Y2J8 whole entry): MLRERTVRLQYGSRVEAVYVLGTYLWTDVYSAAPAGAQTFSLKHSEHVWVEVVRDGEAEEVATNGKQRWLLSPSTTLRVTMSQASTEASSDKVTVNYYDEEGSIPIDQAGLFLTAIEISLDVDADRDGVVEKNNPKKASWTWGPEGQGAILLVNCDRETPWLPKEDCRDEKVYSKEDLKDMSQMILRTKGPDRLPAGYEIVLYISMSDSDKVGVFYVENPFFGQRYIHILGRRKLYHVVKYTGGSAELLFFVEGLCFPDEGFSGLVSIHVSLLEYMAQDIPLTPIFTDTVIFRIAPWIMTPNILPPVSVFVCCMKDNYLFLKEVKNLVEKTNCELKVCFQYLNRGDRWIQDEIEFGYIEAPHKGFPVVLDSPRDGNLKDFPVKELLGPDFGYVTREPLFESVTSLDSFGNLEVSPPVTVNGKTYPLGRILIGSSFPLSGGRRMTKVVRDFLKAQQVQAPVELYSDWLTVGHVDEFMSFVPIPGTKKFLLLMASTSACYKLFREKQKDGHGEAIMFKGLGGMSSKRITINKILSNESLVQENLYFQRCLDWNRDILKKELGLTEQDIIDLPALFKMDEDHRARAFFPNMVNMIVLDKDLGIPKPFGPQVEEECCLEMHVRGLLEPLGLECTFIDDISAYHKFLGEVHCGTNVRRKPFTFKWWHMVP

[2] = Cytotoxicity against human MCF-10A cells assessed as inhibition of cell growth incubated for 48 hrs by MTT assay; type: toxicity, cell-based
[3] = biological target: Protein-arginine deiminase type-4 (Homo sapiens, UniProt Q9UM07); experiment: Inhibition of PAD4 (unknown origin) using Nalpha-benzoyl-L-arginine ethyl ester as substrate preincubated for 60 mins followed by substrate addition and measured after 90 mins by colorimetric analysis
Chain of Protein-arginine deiminase type-4 (Q9UM07 whole entry): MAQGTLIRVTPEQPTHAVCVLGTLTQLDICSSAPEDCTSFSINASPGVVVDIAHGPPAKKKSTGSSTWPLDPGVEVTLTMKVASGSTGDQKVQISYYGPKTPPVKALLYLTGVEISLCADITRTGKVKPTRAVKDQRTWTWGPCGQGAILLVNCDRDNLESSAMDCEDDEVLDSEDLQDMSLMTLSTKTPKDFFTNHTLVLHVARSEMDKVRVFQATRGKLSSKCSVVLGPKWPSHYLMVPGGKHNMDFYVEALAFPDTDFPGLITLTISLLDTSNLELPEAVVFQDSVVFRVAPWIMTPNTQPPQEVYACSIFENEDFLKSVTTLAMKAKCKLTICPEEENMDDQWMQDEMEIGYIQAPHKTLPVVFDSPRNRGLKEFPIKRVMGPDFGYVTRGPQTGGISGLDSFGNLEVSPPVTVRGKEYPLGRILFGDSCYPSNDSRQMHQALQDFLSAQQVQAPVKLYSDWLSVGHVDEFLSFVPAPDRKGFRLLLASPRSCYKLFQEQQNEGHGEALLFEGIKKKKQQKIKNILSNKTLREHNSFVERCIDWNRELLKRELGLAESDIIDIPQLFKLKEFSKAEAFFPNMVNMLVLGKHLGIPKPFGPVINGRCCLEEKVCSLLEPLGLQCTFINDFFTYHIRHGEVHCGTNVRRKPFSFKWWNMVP

MDA-MB-468 = experiment: Antiproliferative activity against human MDA-MB-468 cells assessed as inhibition of cell growth incubated for 48 hrs by MTT assay; type: functional, cell-based; settings: MDA-MB-468, 48 h

Row | Compound | pIC50 (4T1) | pIC50 [1] | pIC50 [3] | pIC50 (MDA-MB-468) | IC50 at 48 h [2] [µM]
1 | N=C(CCl)NCCC[C@H](NC(=O)c1ccc2[nH]ccc2c1)C(=O)NCc1ccccc1 | 4.38 | 5.84 | 6.10 | 4.21 | 63.6
2 | COC(Cc1nc(C(=O)N[C@@H](CCCNC(=N)CCl)C(=O)NCc2ccccc2)cc2c1[nH]c1ccccc12)OC | 4.70 | 6.00 | 6.02 | 5.10 | 11
3 | N=C(CCl)NCCC[C@H](NC(=O)c1ccc2nc[nH]c2c1)C(=O)NCc1ccccc1 | < 4.00 | 5.68 | 5.94 | < 4.00 | > 100
4 | N=C(CCl)NCCC[C@H](NC(=O)c1cc2c([nH]c3ccccc32)c(-c2cc3ccccc3cn2)n1)C(=O)NCc1ccccc1 | 5.83 | < 5.00 | 4.62 | 5.37 | 4.02
5 | N=C(CCl)NCCC[C@H](NC(=O)c1cc2c([nH]c3ccccc32)c(-c2ccc(F)cc2)n1)C(=O)NCc1ccccc1 | 4.96 | 5.53 | 5.99 | 5.40 | 7.07
6 | Cc1ccc(-c2nc(C(=O)N[C@@H](CCCNC(=N)CCl)C(=O)NCc3ccccc3)cc3c2[nH]c2ccccc23)cc1 | 5.10 | < 5.00 | 5.00 | 5.16 | 17.5
7 | N#Cc1ccc(-c2nc(C(=O)N[C@@H](CCCNC(=N)CCl)C(=O)NCc3ccccc3)cc3c2[nH]c2ccccc23)cc1 | 4.74 | 5.52 | 5.79 | 5.36 | 11.1
8 | N=C(CCl)NCCC[C@H](NC(=O)c1c[nH]c2ccc(F)cc12)C(=O)NCc1ccccc1 | 4.07 | 5.68 | 5.99 | 4.04 | 72.7
9 | Cc1nc(C(=O)N[C@@H](CCCNC(=N)CCl)C(=O)NCc2ccccc2)cc2c1[nH]c1ccccc12 | 4.72 | 6.08 | 6.12 | 5.17 | 18.2
10 | N=C(CCl)NCCC[C@H](NC(=O)c1cc2c([nH]c3ccccc32)c(-c2ccncc2)n1)C(=O)NCc1ccccc1 | 4.34 | 5.33 | 5.46 | 4.07 | 83.8

More lines, in order of rising pIC50 (4T1), values ahead:

Row | pIC50 (4T1) | pIC50 [1] | pIC50 [3] | pIC50 (MDA-MB-468) | Compound | IC50 at 48 h [2] [µM]
11 | 4.63 | 5.56 | 5.75 | 4.84 | N=C(CCl)NCCC[C@H](NC(=O)c1cc2c(cn1)[nH]c1ccccc12)C(=O)NCc1ccccc1 | 29.4
12 | 4.91 | 4.77 | 4.85 | 5.14 | CCCCCCCCCc1nc(C(=O)N[C@@H](CCCNC(=N)CCl)C(=O)NCc2ccccc2)cc2c1[nH]c1ccccc12 | 14.3
13 | 4.94 | 5.34 | 5.82 | 5.23 | COc1ccc(-c2nc(C(=O)N[C@@H](CCCNC(=N)CCl)C(=O)NCc3ccccc3)cc3c2[nH]c2ccccc23)cc1OC | 11.1
14 | 5.00 | 5.99 | 6.15 | 5.35 | CC(C)Cc1nc(C(=O)N[C@@H](CCCNC(=N)CCl)C(=O)NCc2ccccc2)cc2c1[nH]c1ccccc12 | 5.16
15 | 5.13 | 5.52 | 5.77 | 5.38 | COc1ccc(-c2nc(C(=O)N[C@@H](CCCNC(=N)CCl)C(=O)NCc3ccccc3)cc3c2[nH]c2ccccc23)cc1 | 6.27
16 | 5.26 | 5.63 | 5.95 | 5.54 | N=C(CCl)NCCC[C@H](NC(=O)c1cc2c([nH]c3ccccc32)c(C2CCCCC2)n1)C(=O)NCc1ccccc1 | 2.76
17 | 5.42 | < 5.00 | < 5.00 | 5.32 | Cn1c(-c2nc(C(=O)N[C@@H](CCCNC(=N)CCl)C(=O)NCc3ccccc3)cc3c2[nH]c2ccccc23)nc2ccccc21 | 5.3

Source: ChEMBL document CHEMBL5506043, “A β-Carboline Derivate PAD4 Inhibitor Reshapes Neutrophil Phenotype and Improves the Tumor Immune Microenvironment against Triple-Negative Breast Cancer” (J Med Chem, 2024)
